Calls of active or inactive are those of the source. The calls are words filed in the database; no cut-off is given here.
How the values were obtained:
Cell membrane [1] = test: Induction of cytoplasmic membrane depolarization in Staphylococcus aureus ATCC43300 assessed as increase in fluorescence intensity at 8 microg/ml measured after 24 mins by DiSC3(5) dye-based fluorescence assay; details: dose 8.0 µg/ml
Enterococcus faecalis = test: Antibacterial activity against vancomycin susceptible Enterococcus faecalis ATCC29212 by broth microdilution assay; format: functional
Escherichia coli [2] = test: Antibacterial activity against Escherichia coli ATCC25922 infected in sepsis mouse model assessed as log reduction in bacterial load in blood at 5 mg/kg pre-infected with bacteria for 1 hrs followed by compound administration at 12 hrs interval for 2 days relative to control; format: functional; details: time 2 day
Escherichia coli [3] = test: Bactericidal activity against Escherichia coli ATCC25922 in presence of 50% serum; format: functional
Bacillus subtilis = test: Antibacterial activity against penicillin-susceptible Bacillus subtilis ATCC9372 by broth microdilution assay; format: functional
Staphylococcus aureus [4] = test: Bactericidal activity against Staphylococcus aureus ATCC43300 assessed as elimination of bacteria at 8 microg/ml measured within 4 hrs by time-kill kinetics assay relative to control; format: functional; details: dose 8 µg/ml
Escherichia coli [5] = test: Antibacterial activity against Escherichia coli ATCC25922 measured after 20 passages; format: functional, organism-based
Pseudomonas aeruginosa = test: Antibacterial activity against penicillin-susceptible Pseudomonas aeruginosa ATCC27853 by broth microdilution method; format: functional
Cell membrane [6] = test: Disruption of cell membrane in Staphylococcus aureus ATCC43300 assessed as increase in protein leakage; format: subcellular; details: dose 1-8 µg/ml
Cell membrane [7] = test: Disruption of cell membrane in Staphylococcus aureus ATCC43300 assessed as increase in intracellular ROS level by measuring fold increase in fluorescence intensity at 8 microg/ml by DCFH-DA staining based fluorescence analysis relative to blank control group; details: dose 8.0 µg/ml
[8] = Ratio of MBC for Escherichia coli ATCC25922 measured after 6 hrs in presence of 50% plasma to MBC for Escherichia coli ATCC25922 in Mueller Hinton Broth; format: functional
Cell membrane [9] = test: Disruption of cell membrane in Escherichia coli ATCC25922 assessed as increase in DNA leakage; details: dose 1-8 µg/ml
[10] = Selectivity index, ratio of HC50 for hemolytic activity in red blood cells (unknown origin) to MIC for antibacterial activity against penicillin-resistant Staphylococcus aureus ATCC43300; format: toxicity, cell-based, RBC; details: read-out: Selectivity Index
Cell membrane [11] = test: Disruption of cell membrane in Staphylococcus aureus ATCC43300 assessed as fold increase in DNA leakage at 8 microg/ml relative to control; format: subcellular; details: dose 8.0 µg/ml
Escherichia coli [12] = test: Antibiofilm activity against Escherichia coli ATCC25922 assessed as inhibition of biofilm formation at 8 microg/ml relative to control; format: functional
[13] = tested on: Staphylococcus epidermidis; test: Antibacterial activity against erythromycin-susceptible Staphylococcus epidermidis ATCC12228 by broth microdilution assay; format: functional
Staphylococcus aureus [14] = test: Selectivity ratio of MBC for Staphylococcus aureus ATCC43300 in presence of 50% blood to MBC for Staphylococcus aureus ATCC43300 in Mueller Hinton Broth; format: functional
Cell membrane [15] = test: Induction of inner membrane permeabilization in Escherichia coli ATCC25922 assessed as fold increase in fluorescence intensity at 8 microg/ml incubated for 20 mins by PI uptake assay relative to negative control; format: subcellular; details: dose 8.0 µg/ml
Escherichia coli [16] = test: Antibacterial activity against Escherichia coli ATCC25922 infected in sepsis mouse model assessed as reduction in inflammatory cell infiltration in spleen at 10 mg/kg pre-infected with bacteria for 1 hrs followed by compound administration at 12 hrs interval for 2 days by H and E staining based analysis; format: functional, organism-based; details: time 2.0 day
Staphylococcus aureus [17] = test: Antibacterial activity against Staphylococcus aureus ATCC43300 infected in sepsis mouse model assessed as reduction in liver damage at 5 to 10 mg/kg pre-infected with bacteria for 1 hrs followed by compound administration at 12 hrs interval for 2 days by H and E staining based analysis; format: functional, organism-based; details: dose 5-10 mg/kg, time 2.0 day
Cell membrane [18] = test: Induction of inner membrane permeabilization in Escherichia coli ATCC25922 assessed as increase in fluorescence intensity incubated for 20 mins by PI uptake assay; format: subcellular; details: dose 0.5-8 µg/ml
Cell membrane [19] = test: Induction of cytoplasmic membrane depolarization in Escherichia coli ATCC25922 assessed as fold increase in fluorescence intensity at 8 microg/ml measured within 24 mins by DiSC3(5) dye-based fluorescence assay relative to negative control; format: subcellular; details: dose 8.0 µg/ml
Staphylococcus aureus [20] = test: Bactericidal activity against Staphylococcus aureus ATCC43300 in Mueller Hinton Broth; format: functional
Staphylococcus aureus [21] = test: Antibacterial activity against Staphylococcus aureus ATCC43300 infected in sepsis mouse model assessed as log reduction in bacterial load in kidney at 10 mg/kg pre-infected with bacteria for 1 hrs followed by compound administration at 12 hrs interval for 2 days relative to control; format: functional; details: time 2 day
Staphylococcus aureus [22] = test: Antibiofilm activity against Staphylococcus aureus ATCC43300 assessed as inhibition of biofilm formation at 8 microg/ml relative to control; format: functional
[23] = Selectivity ratio of MBC for Staphylococcus aureus ATCC43300 in presence of 50% plasma to MBC for Staphylococcus aureus ATCC43300 in Mueller Hinton Broth; format: functional
Staphylococcus aureus [24] = test: Antibacterial activity against Staphylococcus aureus ATCC43300 infected in sepsis mouse model assessed as log reduction in bacterial load in liver at 5 mg/kg pre-infected with bacteria for 1 hrs followed by compound administration at 12 hrs interval for 2 days relative to control; format: functional; details: time 2 day
Escherichia coli [25] = test: Bactericidal activity against Escherichia coli ATCC25922 assessed as log reduction in bacterial colony at 8 times of MIC measured after 6 hrs by time-kill kinetics assay; format: functional
Cell membrane [26] = test: Induction of cytoplasmic membrane depolarization in Staphylococcus aureus ATCC43300 assessed as increase in fluorescence intensity measured after 24 mins by DiSC3(5) dye-based fluorescence assay; details: dose 0.5-8 µg/ml
[27] = Toxicity in ip dosed BALB/c mouse assessed as maximum tolerated dose measured after 7 days; format: organism-based; details: in vivo, time 7 day
[28] = Cytotoxicity against human L02 cells assessed as cell survival at 16 microg/ml by CCK8 assay relative to control; format: toxicity, cell-based; details: at 16 µg/mL, read-out: Survival
Escherichia coli [29] = test: Bactericidal activity against Escherichia coli ATCC25922 in presence of 50% plasma; format: functional
Staphylococcus aureus [30] = test: Antibacterial activity against Staphylococcus aureus ATCC43300 infected in sepsis mouse model assessed as reduction in inflammatory cell infiltration in kidney at 10 mg/kg pre-infected with bacteria for 1 hrs followed by compound administration at 12 hrs interval for 2 days by H and E staining based analysis; format: functional, organism-based; details: time 2.0 day
Cell membrane [31] = test: Induction of inner membrane permeabilization in Staphylococcus aureus ATCC43300 assessed as increase in fluorescence intensity incubated for 20 mins by PI uptake assay; format: subcellular; details: dose 0.5-8 µg/ml
Cell membrane [32] = test: Disruption of cell membrane in Staphylococcus aureus ATCC43300 assessed as appearance of red fluorescence by PI staining based fluorescence microscopic analysis
Cell membrane [33] = test: Induction of cytoplasmic membrane depolarization in Staphylococcus aureus ATCC43300 assessed as fold increase in fluorescence intensity at 4 microg/ml measured after 24 mins by DiSC3(5) dye-based fluorescence assay relative to negative control; details: dose 4.0 µg/ml
Staphylococcus aureus [34] = test: Bactericidal activity against Staphylococcus aureus ATCC43300 assessed as elimination of bacteria at 8 microg/ml measured within 6 hrs by time-kill kinetics assay relative to control; format: functional; details: dose 8 µg/ml

Question: Which Activity (Cell membrane [1]) does the source give for CCCCCCOc1cc[n+](CCCOc2ccc(/C=C/C(=O)c3ccc(OCCC[n+]4ccc(OCCCCCC)cc4)cc3)cc2)cc1.[Br-].[Br-] here?
Answer: Active; Fluorescence Intensity Surpassed The Melittin Group

Question: What about the MIC (Enterococcus faecalis) of the same molecule?
Answer: 0.5 µg/mL

Question: What about the “log(activity)” value (Escherichia coli [2]) of the same molecule?
Answer: 0.71

Question: And the MBC (Escherichia coli [3])?
Answer: 32 µg/mL

Question: What about the MIC (Bacillus subtilis) of the same molecule?
Answer: 1 µg/mL

Question: What about the Activity (Staphylococcus aureus [4]) of the same molecule?
Answer: >=99.9%

Question: What about the Activity (Escherichia coli [5]) of the same molecule?
Answer: Active

Question: What about the MIC (Pseudomonas aeruginosa) of the same molecule?
Answer: 32 µg/mL

Question: What about the Activity (Cell membrane [6]) of the same molecule?
Answer: Dose-dependent-effect

Question: What about the fold change (FC) (Cell membrane [7]) of the same molecule?
Answer: 1.7

Question: And the Ratio [8]?
Answer: <4

Question: What about the Activity (Cell membrane [9]) of the same molecule?
Answer: Dose-dependent-effect

Question: What about the selectivity ratio [10] of the same molecule?
Answer: 659

Question: And the fold change (FC) (Cell membrane [11])?
Answer: 12

Question: What about the inhibition at 8 µg/mL (Escherichia coli [12]) of the same molecule?
Answer: 48.7%

Question: And the MIC [13]?
Answer: 0.5 µg/mL

Question: And the Ratio (Staphylococcus aureus [14])?
Answer: < 2

Question: What about the fold change (FC) (Cell membrane [15]) of the same molecule?
Answer: 1.9

Question: What about the Activity (Escherichia coli [16]) of the same molecule?
Answer: inactive

Question: What about the Activity (Staphylococcus aureus [17]) of the same molecule?
Answer: Active

Question: What about the Activity (Cell membrane [18]) of the same molecule?
Answer: Dose-dependent-effect

Question: What about the fold change (FC) (Cell membrane [19]) of the same molecule?
Answer: 7.5

Question: And the MBC (Staphylococcus aureus [20])?
Answer: 4 µg/mL

Question: And the “log(activity)” value (Staphylococcus aureus [21])?
Answer: 1.76

Question: And the inhibition at 8 µg/mL (Staphylococcus aureus [22])?
Answer: 90.8%

Question: What about the Ratio [23] of the same molecule?
Answer: <2

Question: And the “log(activity)” value (Staphylococcus aureus [24])?
Answer: 0.91

Question: What about the “log(activity)” value (Escherichia coli [25]) of the same molecule?
Answer: 8.31

Question: And the Activity (Cell membrane [26])?
Answer: Dose-dependent-effect

Question: What about the MTD at 168 h [27] of the same molecule?
Answer: 50 mg/kg

Question: What about the viability at 16 microg/ml [28] of the same molecule?
Answer: > 83%

Question: What about the MBC (Escherichia coli [29]) of the same molecule?
Answer: 8 µg/mL

Question: And the Activity (Staphylococcus aureus [30])?
Answer: inactive

Question: What about the Activity (Cell membrane [31]) of the same molecule?
Answer: Dose-dependent-effect

Question: And the Activity (Cell membrane [32])?
Answer: Active

Question: What about the fold change (FC) (Cell membrane [33]) of the same molecule?
Answer: 5.8

Question: What about the Activity (Staphylococcus aureus [34]) of the same molecule?
Answer: 100%
